The source made the active and inactive calls.
Tests used:
[1] = NIH-3T3 fibroblast cytotoxicity, dose response, cytotoxicity control, cell-based, fluorescence, Alamar Blue, secondary assay (AID 2327); format: functional;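 also: NIH-3T3 mouse fibroblasts cultured with fluconazole at 8 µg/mL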
CAAX prenyl protease 2 [2] = target: CAAX prenyl protease 2 (Saccharomyces cerevisiae S288c, UniProt Q03530); format: biochemical
Streptococcus = experiment: GAS UMAA2166 growth inhibition – luminescence, BacTiterGlo, counter-screen for streptokinase expression inhibitor project, dose response (AID 1915); format: functional, organism-based;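 also: potency for reduction of bacterial viability or growth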
Streptokinase A = target: T1, Streptokinase A (Streptococcus pyogenes serotype M1, UniProt P10520); experiment: viability-normalized secreted streptokinase activity reduction – plasminogen activation absorbance, OD405, dose response (AID 1914); format: functional, Streptococcus pyogenes M1 GAS;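 also: secreted streptokinase activity via plasminogen activation per viability signal from cell pellet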
T1 sequence (P10520 whole entry): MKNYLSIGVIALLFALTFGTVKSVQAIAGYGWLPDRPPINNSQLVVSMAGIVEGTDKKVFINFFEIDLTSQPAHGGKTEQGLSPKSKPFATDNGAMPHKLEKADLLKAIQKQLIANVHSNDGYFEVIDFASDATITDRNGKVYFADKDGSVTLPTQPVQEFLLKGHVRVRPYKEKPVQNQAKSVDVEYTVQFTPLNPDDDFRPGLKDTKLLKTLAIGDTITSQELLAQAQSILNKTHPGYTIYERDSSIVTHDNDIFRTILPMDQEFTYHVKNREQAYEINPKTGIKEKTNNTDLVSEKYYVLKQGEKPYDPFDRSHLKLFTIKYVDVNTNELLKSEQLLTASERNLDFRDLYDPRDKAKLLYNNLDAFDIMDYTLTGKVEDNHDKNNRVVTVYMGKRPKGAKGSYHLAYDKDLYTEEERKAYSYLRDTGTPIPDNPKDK

[3] = tested on: Streptococcus sp. 'group A'; experiment: Streptococcus pyogenes SK(-)GAS viability under kanamycin – luminescence, BacTiterGlo, confirmation, counter-screen for streptokinase expression inhibitor project, dose response (AID 1900); format: functional, organism-based
CAAX prenyl protease 2 [4] = target: CAAX prenyl protease 2 (Homo sapiens, UniProt Q9Y256); experiment: inhibition of Ras-converting CAAX protease Rce1 – biochemical, yeast membranes, quenched-peptide fluorescence, cherry-pick, dose response (AID 588849)
Chain of CAAX prenyl protease 2 (Homo sapiens, UniProt Q9Y256) (Q9Y256 whole entry): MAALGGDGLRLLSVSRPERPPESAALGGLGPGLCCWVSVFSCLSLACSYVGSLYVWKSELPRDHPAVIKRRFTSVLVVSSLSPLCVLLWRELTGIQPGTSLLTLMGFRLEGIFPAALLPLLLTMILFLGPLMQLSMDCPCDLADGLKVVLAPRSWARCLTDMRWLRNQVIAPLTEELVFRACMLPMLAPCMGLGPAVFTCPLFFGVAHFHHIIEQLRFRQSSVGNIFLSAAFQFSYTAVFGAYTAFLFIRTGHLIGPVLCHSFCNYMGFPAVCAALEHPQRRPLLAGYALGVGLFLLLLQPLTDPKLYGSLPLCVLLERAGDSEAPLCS

[5] = fluconazole-exposed Candida albicans growth modulators – fluorescence, retest, confirmation (AID 2467); format: functional, cell-based
CAAX prenyl protease 1 = CAAX prenyl protease 1 (Saccharomyces cerevisiae S288c, UniProt P47154); experiment: yeast CAAX protease Ste24 inhibition – biochemical, S. cerevisiae, plate reader, cherry-pick, dose response (AID 488815)
[6] = target: Type-1 angiotensin II receptor (Homo sapiens, UniProt P30556); experiment: antagonism of angiotensin II type 1 receptor – cell-based, uHTS hits, selectivity assay for APJ receptor antagonist project, dose response (AID 463214); format: functional;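 also: antagonist potency against angiotensin II stimulated AT1 response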
Chain of Type-1 angiotensin II receptor (P30556 whole entry): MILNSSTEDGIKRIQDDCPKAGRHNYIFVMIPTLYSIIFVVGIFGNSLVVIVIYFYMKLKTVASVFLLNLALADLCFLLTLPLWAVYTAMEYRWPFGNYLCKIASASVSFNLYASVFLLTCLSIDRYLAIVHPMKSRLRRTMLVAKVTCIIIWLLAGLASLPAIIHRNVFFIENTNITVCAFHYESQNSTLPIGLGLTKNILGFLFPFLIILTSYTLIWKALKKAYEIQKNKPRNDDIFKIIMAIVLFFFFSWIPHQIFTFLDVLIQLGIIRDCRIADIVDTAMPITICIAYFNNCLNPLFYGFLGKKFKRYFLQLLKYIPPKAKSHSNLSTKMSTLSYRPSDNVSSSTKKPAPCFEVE

Beta-galactosidase = Beta-galactosidase (Escherichia coli, UniProt Q8VNN2); experiment: PubChem AID 485352; format: functional
Chain of Beta-galactosidase (Q8VNN2 whole entry): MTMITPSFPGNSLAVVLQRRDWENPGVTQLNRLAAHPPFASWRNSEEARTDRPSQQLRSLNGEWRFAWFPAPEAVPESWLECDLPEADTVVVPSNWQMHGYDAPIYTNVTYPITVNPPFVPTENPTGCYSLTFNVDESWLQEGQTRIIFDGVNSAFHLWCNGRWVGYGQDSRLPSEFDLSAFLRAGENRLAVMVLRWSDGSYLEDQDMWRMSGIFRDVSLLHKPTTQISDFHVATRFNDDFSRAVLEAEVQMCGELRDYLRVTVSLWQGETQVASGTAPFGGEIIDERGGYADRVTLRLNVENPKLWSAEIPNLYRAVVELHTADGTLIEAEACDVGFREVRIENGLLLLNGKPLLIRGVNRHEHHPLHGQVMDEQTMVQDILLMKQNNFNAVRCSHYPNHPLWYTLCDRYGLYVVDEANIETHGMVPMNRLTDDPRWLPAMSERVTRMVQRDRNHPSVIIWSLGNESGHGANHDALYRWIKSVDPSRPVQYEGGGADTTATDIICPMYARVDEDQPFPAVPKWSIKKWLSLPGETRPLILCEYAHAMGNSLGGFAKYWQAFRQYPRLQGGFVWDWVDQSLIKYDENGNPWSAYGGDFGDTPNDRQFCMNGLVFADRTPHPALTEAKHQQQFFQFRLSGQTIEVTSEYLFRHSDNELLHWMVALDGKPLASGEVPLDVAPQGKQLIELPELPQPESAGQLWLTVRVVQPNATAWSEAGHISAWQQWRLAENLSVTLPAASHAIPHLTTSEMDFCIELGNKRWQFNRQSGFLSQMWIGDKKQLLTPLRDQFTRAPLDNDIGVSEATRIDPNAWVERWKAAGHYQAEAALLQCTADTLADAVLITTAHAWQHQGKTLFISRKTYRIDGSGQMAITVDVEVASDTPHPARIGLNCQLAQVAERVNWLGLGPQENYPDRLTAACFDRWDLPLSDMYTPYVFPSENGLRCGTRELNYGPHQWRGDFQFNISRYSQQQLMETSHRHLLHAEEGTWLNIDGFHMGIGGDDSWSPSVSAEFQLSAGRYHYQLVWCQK

[7] = target: Luciferin 4-monooxygenase (Photuris pensylvanica, UniProt Q27757); experiment: inhibition of Cell Titer Glo luciferase signal – biochemical, luminescence, cherry-picks, counter-screen for HSF-1 reporter inhibitor project, dose response (AID 588847)
Chain of Luciferin 4-monooxygenase (Q27757 whole entry): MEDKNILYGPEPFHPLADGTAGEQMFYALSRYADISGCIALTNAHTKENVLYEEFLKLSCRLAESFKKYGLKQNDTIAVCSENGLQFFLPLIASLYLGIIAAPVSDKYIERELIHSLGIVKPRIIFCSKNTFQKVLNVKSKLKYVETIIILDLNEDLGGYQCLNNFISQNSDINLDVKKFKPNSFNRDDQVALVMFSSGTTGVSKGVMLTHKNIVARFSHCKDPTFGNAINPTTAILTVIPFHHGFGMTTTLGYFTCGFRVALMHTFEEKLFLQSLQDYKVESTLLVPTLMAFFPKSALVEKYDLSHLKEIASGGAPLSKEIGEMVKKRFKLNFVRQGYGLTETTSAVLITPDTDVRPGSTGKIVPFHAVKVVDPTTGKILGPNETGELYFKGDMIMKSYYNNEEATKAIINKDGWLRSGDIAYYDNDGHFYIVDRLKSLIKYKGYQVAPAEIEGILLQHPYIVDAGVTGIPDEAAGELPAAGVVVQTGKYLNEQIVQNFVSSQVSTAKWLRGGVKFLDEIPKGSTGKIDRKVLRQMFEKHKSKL

[8] = target: DNA dC->dU-editing enzyme APOBEC-3G (Homo sapiens, UniProt Q9HC16); experiment: Dose Response confirmation of small molecule APOBEC3G DNA Deaminase Inhibitors via a fluorescence-based single-stranded DNA deaminase assay. [Related pubchem assays (depositor defined):AID493012, AID493028]; format: functional
Chain of DNA dC->dU-editing enzyme APOBEC-3G (Q9HC16 whole entry): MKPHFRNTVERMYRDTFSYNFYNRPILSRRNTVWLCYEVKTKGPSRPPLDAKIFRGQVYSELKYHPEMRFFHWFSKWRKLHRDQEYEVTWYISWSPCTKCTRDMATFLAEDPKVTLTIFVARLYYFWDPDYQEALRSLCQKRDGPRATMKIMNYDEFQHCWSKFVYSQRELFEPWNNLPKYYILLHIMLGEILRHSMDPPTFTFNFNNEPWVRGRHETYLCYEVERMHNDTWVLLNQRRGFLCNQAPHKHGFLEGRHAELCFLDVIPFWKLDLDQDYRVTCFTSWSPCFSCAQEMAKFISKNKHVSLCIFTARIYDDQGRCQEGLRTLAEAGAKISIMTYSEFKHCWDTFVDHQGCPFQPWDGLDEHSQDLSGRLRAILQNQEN

[9] = target: T2, Small ubiquitin-related modifier 1 (Homo sapiens, UniProt P63165); experiment: SUMO1 protein interaction blockers, potency – biochemical, fluorescence polarization, uHTS hits, dose response (AID 624382); format: functional; settings: read-out: IC50_Mean
T2 sequence (P63165 whole entry): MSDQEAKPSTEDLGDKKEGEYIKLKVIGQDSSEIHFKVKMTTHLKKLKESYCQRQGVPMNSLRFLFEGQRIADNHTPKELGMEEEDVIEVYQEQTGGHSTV

[10] = target: T3, Apoptotic protease-activating factor 1 (Homo sapiens, UniProt O14727); experiment: activation of Apaf-1 mediated apoptosis – fluorescent, uHTS hits, dose response (AID 588554); format: functional
T3 sequence (O14727 whole entry): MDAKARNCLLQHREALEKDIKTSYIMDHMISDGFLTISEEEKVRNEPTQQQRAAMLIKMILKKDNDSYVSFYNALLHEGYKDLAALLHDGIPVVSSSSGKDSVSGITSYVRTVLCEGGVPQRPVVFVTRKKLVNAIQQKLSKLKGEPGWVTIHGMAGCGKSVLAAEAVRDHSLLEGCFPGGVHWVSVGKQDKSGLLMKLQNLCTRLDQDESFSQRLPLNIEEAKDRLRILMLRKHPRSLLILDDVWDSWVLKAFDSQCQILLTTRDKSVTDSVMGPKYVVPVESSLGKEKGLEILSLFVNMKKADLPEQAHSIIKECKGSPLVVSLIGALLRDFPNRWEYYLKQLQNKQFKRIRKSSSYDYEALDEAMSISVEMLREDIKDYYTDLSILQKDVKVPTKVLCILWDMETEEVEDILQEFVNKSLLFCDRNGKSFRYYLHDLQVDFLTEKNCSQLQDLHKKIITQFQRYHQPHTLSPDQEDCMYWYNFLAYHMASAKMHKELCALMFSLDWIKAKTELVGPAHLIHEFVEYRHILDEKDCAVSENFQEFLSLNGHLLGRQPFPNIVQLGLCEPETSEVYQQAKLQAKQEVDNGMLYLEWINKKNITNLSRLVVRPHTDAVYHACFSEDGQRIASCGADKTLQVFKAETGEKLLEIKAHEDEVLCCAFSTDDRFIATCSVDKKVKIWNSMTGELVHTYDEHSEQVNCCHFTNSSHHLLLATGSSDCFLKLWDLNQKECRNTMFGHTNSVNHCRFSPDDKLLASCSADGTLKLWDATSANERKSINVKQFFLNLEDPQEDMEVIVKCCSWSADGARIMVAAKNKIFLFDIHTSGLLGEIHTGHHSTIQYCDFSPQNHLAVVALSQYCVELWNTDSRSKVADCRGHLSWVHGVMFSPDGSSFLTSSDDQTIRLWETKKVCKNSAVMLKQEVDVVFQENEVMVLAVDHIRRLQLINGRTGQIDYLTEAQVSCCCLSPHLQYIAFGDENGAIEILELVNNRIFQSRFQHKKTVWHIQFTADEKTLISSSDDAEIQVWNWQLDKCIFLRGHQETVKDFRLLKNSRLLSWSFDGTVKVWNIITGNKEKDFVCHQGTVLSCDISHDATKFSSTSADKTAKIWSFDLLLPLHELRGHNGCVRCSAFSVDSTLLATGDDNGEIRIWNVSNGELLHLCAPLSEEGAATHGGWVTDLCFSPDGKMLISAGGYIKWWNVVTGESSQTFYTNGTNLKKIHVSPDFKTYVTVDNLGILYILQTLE

[11] = target: T2, Small ubiquitin-related modifier 1; experiment: SUMO1 protein-protein binding blockers, potency – biochemical, FRET, dose response (AID 624383); format: functional; settings: read-out: IC50_Mean
[12] = target: DNA dC->dU-editing enzyme APOBEC-3A (Homo sapiens, UniProt P31941); experiment: A3A deaminase inhibition for selectivity – biochemical, dose response (AID 504722); format: functional
Chain of DNA dC->dU-editing enzyme APOBEC-3A (P31941 whole entry): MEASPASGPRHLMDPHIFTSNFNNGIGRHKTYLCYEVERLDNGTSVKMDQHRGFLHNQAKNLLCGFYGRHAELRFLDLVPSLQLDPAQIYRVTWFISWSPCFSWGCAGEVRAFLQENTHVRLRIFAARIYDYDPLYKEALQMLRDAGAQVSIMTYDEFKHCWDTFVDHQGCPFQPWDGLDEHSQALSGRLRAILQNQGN

[13] = target: DNA (cytosine-5)-methyltransferase 1 (Homo sapiens, UniProt P26358); experiment: inhibition of DNA methylation by DNMT1 – biochemical, fluorescent molecular beacon, confirmation (AID 602386); format: functional
Chain of DNA (cytosine-5)-methyltransferase 1 (P26358 whole entry, the tested form may be a part): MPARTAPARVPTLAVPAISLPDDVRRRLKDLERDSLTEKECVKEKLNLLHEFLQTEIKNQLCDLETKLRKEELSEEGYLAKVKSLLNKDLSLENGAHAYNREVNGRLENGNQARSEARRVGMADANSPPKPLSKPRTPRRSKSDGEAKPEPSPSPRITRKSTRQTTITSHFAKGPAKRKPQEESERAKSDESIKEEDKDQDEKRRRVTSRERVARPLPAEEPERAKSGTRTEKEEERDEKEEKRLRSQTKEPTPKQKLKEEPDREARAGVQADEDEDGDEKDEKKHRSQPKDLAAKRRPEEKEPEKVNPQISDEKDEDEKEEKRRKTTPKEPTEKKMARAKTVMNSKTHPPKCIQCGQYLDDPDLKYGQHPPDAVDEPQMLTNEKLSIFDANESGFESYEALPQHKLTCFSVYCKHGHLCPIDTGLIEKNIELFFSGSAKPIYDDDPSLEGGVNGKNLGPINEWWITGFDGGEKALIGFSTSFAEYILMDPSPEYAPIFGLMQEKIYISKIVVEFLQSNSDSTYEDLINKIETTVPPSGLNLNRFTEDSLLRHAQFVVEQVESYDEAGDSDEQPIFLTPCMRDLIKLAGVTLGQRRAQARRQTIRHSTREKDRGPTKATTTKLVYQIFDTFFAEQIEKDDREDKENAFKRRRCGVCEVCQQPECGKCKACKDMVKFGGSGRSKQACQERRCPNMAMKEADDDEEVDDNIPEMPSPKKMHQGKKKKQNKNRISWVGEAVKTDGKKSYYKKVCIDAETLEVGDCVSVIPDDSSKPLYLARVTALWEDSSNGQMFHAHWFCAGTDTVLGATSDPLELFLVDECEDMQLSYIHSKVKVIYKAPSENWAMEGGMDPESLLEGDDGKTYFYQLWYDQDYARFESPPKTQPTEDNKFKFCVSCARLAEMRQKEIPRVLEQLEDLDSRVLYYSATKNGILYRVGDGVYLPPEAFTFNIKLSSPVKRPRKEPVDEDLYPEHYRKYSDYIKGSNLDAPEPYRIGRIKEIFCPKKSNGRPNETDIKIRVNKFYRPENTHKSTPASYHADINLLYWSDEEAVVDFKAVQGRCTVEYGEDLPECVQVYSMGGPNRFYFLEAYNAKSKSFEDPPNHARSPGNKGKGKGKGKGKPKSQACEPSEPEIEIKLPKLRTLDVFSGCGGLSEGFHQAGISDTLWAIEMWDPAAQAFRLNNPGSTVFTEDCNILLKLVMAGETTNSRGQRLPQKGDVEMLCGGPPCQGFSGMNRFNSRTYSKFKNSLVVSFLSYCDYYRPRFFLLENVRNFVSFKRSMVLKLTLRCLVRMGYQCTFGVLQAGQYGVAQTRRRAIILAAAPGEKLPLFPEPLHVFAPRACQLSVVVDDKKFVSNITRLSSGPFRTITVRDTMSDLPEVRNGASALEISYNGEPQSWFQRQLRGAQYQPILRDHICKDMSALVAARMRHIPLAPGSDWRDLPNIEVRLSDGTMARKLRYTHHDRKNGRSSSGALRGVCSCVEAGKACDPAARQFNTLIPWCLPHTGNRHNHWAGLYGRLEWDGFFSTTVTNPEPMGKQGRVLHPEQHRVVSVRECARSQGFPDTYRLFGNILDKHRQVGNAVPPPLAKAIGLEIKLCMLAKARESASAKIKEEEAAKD

[14] = target: T4, Carboxy-terminal domain RNA polymerase II polypeptide A small phosphatase 1 (Homo sapiens, UniProt Q9GZU7); experiment: CTDSP1 inhibitors, concentration-response, biochemical, absorbance readout, ultra-high-throughput screen actives (AID 540297); format: functional
T4 sequence (Q9GZU7 whole entry): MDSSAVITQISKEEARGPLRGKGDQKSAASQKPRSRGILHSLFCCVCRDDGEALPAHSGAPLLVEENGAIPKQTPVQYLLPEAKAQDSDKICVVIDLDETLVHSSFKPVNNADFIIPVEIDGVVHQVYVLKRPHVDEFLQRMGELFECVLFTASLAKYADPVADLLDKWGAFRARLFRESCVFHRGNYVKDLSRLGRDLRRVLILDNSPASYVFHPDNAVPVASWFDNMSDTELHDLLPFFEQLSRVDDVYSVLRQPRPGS

Chain of CAAX prenyl protease 2 (Saccharomyces cerevisiae S288c, UniProt Q03530) (Q03530 whole entry): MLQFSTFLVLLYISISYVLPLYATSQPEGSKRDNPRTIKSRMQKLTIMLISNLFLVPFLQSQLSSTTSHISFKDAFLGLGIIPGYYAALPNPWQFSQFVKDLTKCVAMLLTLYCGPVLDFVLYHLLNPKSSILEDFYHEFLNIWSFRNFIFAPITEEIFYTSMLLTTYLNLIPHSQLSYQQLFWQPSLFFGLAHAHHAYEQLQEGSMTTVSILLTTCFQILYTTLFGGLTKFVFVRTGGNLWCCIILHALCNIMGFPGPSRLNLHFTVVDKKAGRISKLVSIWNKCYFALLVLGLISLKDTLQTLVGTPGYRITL

CCCCCc1ccc(OCCOCC[n+]2cn(C)c3ccccc32)c(CCCCC)c1
EC50 [1]: > 150 µM (inactive)
AC50 (CAAX prenyl protease 2 [2]): 9.1 µM (active)
EC50 (Streptococcus): 16.1 µM (inconclusive)
EC50 (Streptokinase A): 13.5 µM (active)
EC50 [3]: 6.43 µM (active)
AC50 (CAAX prenyl protease 2 [4]): 17.9 µM (active)
EC50 [5]: 1.31 µM (active)
AC50 (CAAX prenyl protease 1): 13.1 µM (active)

O=C(CCC(=O)OCC(=O)c1ccc(Cl)cc1Cl)Nc1cccc2cccnc12
IC50 [6]: > 40 µM (not active)
EC50 (Beta-galactosidase): > 40 µM (inactive)

C[C@]12C=CC(=O)C=C1CC[C@@H]1[C@@H]2[C@@H](O)C[C@@]2(C)[C@H]1CC[C@]2(O)C(=O)CO [PREDNISOLONE]
AC50 [7]: > 52 µM (inactive)

C=C(C)C(=O)Nc1cccc(C2=NOC3(C2)C[C@@H](C(N)=O)N(C(=O)/C=C/CC)C3)c1 (stereo partly drawn)
IC50 [8]: 6.06 µM (active)
IC50 [9]: > 66.6 µM (inactive)
EC50 [10]: 4.43 µM (active)
IC50 [11]: 3.25 µM (active)
IC50 [12]: > 100 µM (inactive)
IC50 [13]: 5.96 µM (active)
IC50 [14]: 1.73 µM (active)

Source: ChEMBL document CHEMBL1201862, “PubChem BioAssay data set” (2004)
